# Experimental data reported in patent US9365522B2, “Pyrazole amide derivative” (AMGEN INC., priority 2015, dated 2016).
# Biological target: T1, human RORγ-LBD (Homo sapiens, UniProt P51449)
# T1 construct: made in house; host or cells: E. coli (BL-21)
# T1 sequence (P51449 262-518): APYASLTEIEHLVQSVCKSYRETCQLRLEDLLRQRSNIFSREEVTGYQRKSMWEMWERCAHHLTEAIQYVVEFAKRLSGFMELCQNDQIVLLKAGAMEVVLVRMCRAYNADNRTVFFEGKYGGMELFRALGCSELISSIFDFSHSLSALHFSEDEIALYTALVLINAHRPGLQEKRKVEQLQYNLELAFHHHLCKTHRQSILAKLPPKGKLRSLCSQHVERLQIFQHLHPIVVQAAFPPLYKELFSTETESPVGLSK
# Assay: ROR gamma coactivator peptide recruitment Alphascreen assay (RORγ-LBD binding to GRIP1 coactivator peptide)
# Assay type: biochemical
# Conditions: 5 nM human RORγ-LBD, 30 nM 7-β-hydroxycholesterol, 50 nM biotinylated GRIP1 coactivator peptide, overnight incubation at room temperature; read-out: result (pIC50, RORγ coactivator peptide recruitment Alphascreen assay) (converted)
# How it was run: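 Alphascreen proximity read-out after overnight room-temperature incubation, yielding pIC50 from 1-in-2 compound series (2.5% DMSO final). Mixture: 50 nM biotin-GRIP1 peptide, 30 nM 7-β-hydroxycholesterol agonist, 5 nM recombinant 6×His:Flag human RORγ-LBD (aa 262-518), 50 mM HEPES pH 7.4.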
row,IC50 [nM],Structure (SMILES)
1,21.9,"C[C@@H]1C[C@@H](n2ncc(C(=O)N(CC(=O)c3c(Cl)cncc3Cl)C[C@@H]3CCC(C)(C)O3)c2C(F)(F)F)CC[C@@H]1C(=O)O [Example 774, (1S,2R,4S)-4-(4-((2-(3,5-dichloro-4-pyridinyl)-2-oxoethyl)(((2S)-5,5-dimethyltetrahydro-2-furanyl)methyl)carbamoyl)-5-(trifluoromethyl)-1H-pyrazol-1-yl)-2-methylcyclohexanecarboxylic acid]"
2,2.24,"CC(C)(CN(CC(=O)c1c(Cl)cccc1Cl)C(=O)c1cnn([C@H]2CC[C@](C)(C(=O)O)CC2)c1C(F)(F)F)C(F)(F)F [Example 893, trans-4-(4-((2-(2,6-dichlorophenyl)-2-oxoethyl)(3,3,3-trifluoro-2,2-dimethylpropyl)carbamoyl)-5-(trifluoromethyl)-1H-pyrazol-1-yl)-1-methylcyclohexanecarboxylic acid]"
3,0.589,"CCC1(CN(CC(=O)c2c(Cl)cc(C)cc2Cl)C(=O)c2cnn([C@H]3CC[C@](C)(C(=O)O)CC3)c2C(F)(F)F)CCC1 [Example 744, trans-4-(4-((2-(2,6-dichloro-4-methylphenyl)-2-oxoethyl)((1-ethylcyclobutyl)methyl)carbamoyl)-5-(trifluoromethyl)-1H-pyrazol-1-yl)-1-methylcyclohexanecarboxylic acid]"
4,5890,"C[C@]1(C(=O)O)CC[C@H](n2ncc(C(=O)N3C[C@H](C4CCCCC4)C[C@@H]3C(=O)c3c(Cl)cncc3Cl)c2C(F)(F)F)CC1 (single isomer, unassigned) [Example 822]"
5,3.02,"C[C@]1(C(=O)O)CC[C@H](n2ncc(C(=O)N(CC(=O)c3c(Cl)cncc3Cl)CC3(CF)CCC3)c2C(F)(F)F)CC1 [Example 800, trans-4-(4-((2-(3,5-dichloro-4-pyridinyl)-2-oxoethyl)((1-(fluoromethyl)cyclobutyl)methyl)carbamoyl)-5-(trifluoromethyl)-1H-pyrazol-1-yl)-1-methylcyclohexanecarboxylic acid]"
6,28.8,"CC1(CN(CC(=O)c2c(Cl)cncc2Cl)C(=O)c2cnn([C@@H]3CC[C@@H](C(=O)O)C(C)(C)C3)c2C(F)(F)F)CCC1 [Example 824, (1R,4R)-4-(4-((2-(3,5-dichloro-4-pyridinyl)-2-oxoethyl)((1-methylcyclobutyl)methyl)carbamoyl)-5-(trifluoromethyl)-1H-pyrazol-1-yl)-2,2-dimethylcyclohexanecarboxylic acid]"
7,7.24,"C[C@]1(C(=O)O)CC[C@H](n2ncc(C(=O)N(CC(=O)c3c(Cl)cncc3Cl)C[C@@H]3CC3(F)F)c2C(F)(F)F)CC1 [Example 818, trans-4-(4-((2-(3,5-dichloro-4-pyridinyl)-2-oxoethyl)(((1S)-2,2-difluorocyclopropyl)methyl)carbamoyl)-5-(trifluoromethyl)-1H-pyrazol-1-yl)-1-methylcyclohexanecarboxylic acid]"

# The next lines start with the molecule.
row,Structure (SMILES),IC50 [nM]
1,"C[C@]1(C(=O)O)CC[C@H](n2ncc(C(=O)N(CC(=O)c3c(Cl)cncc3Cl)CC3(F)CC4(CC4)C3)c2C(F)(F)F)CC1 [Example 712, trans-4-(4-((2-(3,5-dichloro-4-pyridinyl)-2-oxoethyl)((5-fluorospiro[2.3]hex-5-yl)methyl)carbamoyl)-5-(trifluoromethyl)-1H-pyrazol-1-yl)-1-methylcyclohexanecarboxylic acid]",12.9
2,"CC1(CN(CC(=O)c2c(Cl)cncc2Cl)C(=O)c2cnn([C@H]3CC[C@](C)(C(=O)O)CC3)c2C(F)(F)F)COC1 [Example 675, trans-4-(4-((2-(3,5-dichloro-4-pyridinyl)-2-oxoethyl)((3-methyl-3-oxetanyl)methyl)carbamoyl)-5-(trifluoromethyl)-1H-pyrazol-1-yl)-1-methylcyclohexanecarboxylic acid]",234
3,"Cc1cc(Cl)c(C(=O)CN(CC2(C)CCC2)C(=O)c2cnn([C@H]3CC[C@](C)(C(=O)O)CC3)c2C(F)(F)F)c(Cl)c1 [Example 731, trans-4-(4-((2-(2,6-dichloro-4-methylphenyl)-2-oxoethyl)((1-methylcyclobutyl)methyl)carbamoyl)-5-(trifluoromethyl)-1H-pyrazol-1-yl)-1-methylcyclohexanecarboxylic acid]",0.933
4,"C[C@]1(CN(CCc2c(Cl)cncc2Cl)C(=O)c2cnn([C@H]3CC[C@](C)(C(=O)O)CC3)c2C(F)(F)F)CCCO1 [Example 681, trans-4-(4-((2-(3,5-dichloro-4-pyridinyl)ethyl)(((2R)-2-methyltetrahydro-2-furanyl)methyl)carbamoyl)-5-(trifluoromethyl)-1H-pyrazol-1-yl)-1-methylcyclohexanecarboxylic acid]",9.55
5,"O=C(CN(C(=O)c1cnn([C@H]2CC[C@@H](C(=O)O)CC2)c1C(F)(F)F)[C@H]1CCC12CCC2)c1c(Cl)cccc1Cl [Example 642, cis-4-(4-((2-(2,6-dichlorophenyl)-2-oxoethyl)((1S)-spiro[3.3]hept-1-yl)carbamoyl)-5-(trifluoromethyl)-1H-pyrazol-1-yl)cyclohexanecarboxylic acid]",24
6,"C[C@@H]1C[C@@H](n2ncc(C(=O)N(CC(=O)c3c(Cl)cccc3Cl)CC3CC(C)(C)C3)c2C(F)(F)F)CC[C@@H]1C(=O)O (stereo in doubt) [Example 572, (1S,2R,4S)-4-(4-((2-(2,6-dichlorophenyl)-2-oxoethyl)((3,3-dimethylcyclobutyl)methyl)carbamoyl) 5-(trifluoromethyl)-1H-pyrazol-1-yl)-2-methylcyclohexanecarboxylic acid]",4.68
7,CC1(C)CC[C@@H]1N(CC(=O)c1c(Cl)cccc1Cl)C(=O)c1cnn([C@H]2CC[C@](C)(C(=O)O)CC2)c1C(F)(F)F [Example 620],38.9
8,"CC1(C)CC(CN(CC(=O)c2c(F)cccc2Cl)C(=O)c2cnn([C@H]3CC[C@@H](C(=O)O)CC3)c2C(F)(F)F)C1 [Example 596, cis-4-(4-((2-(2-chloro-6-fluorophenyl)-2-oxoethyl)((3,3-dimethylcyclobutyl)methyl)carbamoyl)-5-(trifluoromethyl)-1H-pyrazol-1-yl)cyclohexanecarboxylic acid]",151
9,"Cc1cc(Cl)c(C(=O)CN(C(=O)c2cnn([C@H]3CC[C@](C)(C(=O)O)CC3)c2C(F)(F)F)[C@H]2CCC23CCC3)c(Cl)c1 [Example 721, trans-4-(4-((2-(2,6-dichloro-4-methylphenyl)-2-oxoethyl)((1S)-spiro[3.3]hept-1-yl)carbamoyl)-5-(trifluoromethyl)-1H-pyrazol-1-yl)-1-methylcyclohexanecarboxylic acid]",0.832
10,"C[C@@H]1C[C@@H](n2ncc(C(=O)N(CC(=O)c3c(Cl)cncc3Cl)CC3(F)CC3)c2C(F)(F)F)CC[C@@H]1C(=O)O (stereo in doubt) [Example 736, (1S,2R,4S)-4-(4-((2-(3,5-dichloro-4-pyridinyl)-2-oxoethyl)((1-fluorocyclopropyl)methyl)carbamoyl)-5-(trifluoromethyl)-1H-pyrazol-1-yl)-2-methylcyclohexanecarboxylic acid]",110
11,"CC1(C)CC[C@H](CN(CCc2c(Cl)cncc2Cl)C(=O)c2cnn([C@H]3CC[C@](C)(C(=O)O)CC3)c2C(F)(F)F)O1 [Example 679, trans-4-(4-((2-(3,5-dichloro-4-pyridinyl)ethyl)(((2R)-5,5-dimethyltetrahydro-2-furanyl)methyl)carbamoyl)-5-(trifluoromethyl)-1H-pyrazol-1-yl)-1-methylcyclohexanecarboxylic acid]",12
12,"CC(C)(C)CN(CC(=O)c1c(Cl)cncc1Cl)C(=O)c1cnn([C@@H]2CCCC[C@H]2CC(=O)O)c1C(F)(F)F [Example 659, ((1S,2R)-2-(4-((2-(3,5-dichloro-4-pyridinyl)-2-oxoethyl)(2,2-dimethylpropyl)carbamoyl)-5-(trifluoromethyl)-1H-pyrazol-1-yl)cyclohexyl)acetic acid]",331
13,"CC(C)(C)C[C@H](CO)N(CCc1c(Cl)cccc1Cl)C(=O)c1cnn([C@H]2CC[C@](C)(C(=O)O)CC2)c1C(F)(F)F [Example 605, trans-4-(4-((2-(2,6-dichlorophenyl)ethyl)((2R)-1-hydroxy-4,4-dimethyl-2-pentanyl)carbamoyl)-5-(trifluoromethyl)-1H-pyrazol-1-yl)-1-methylcyclohexanecarboxylic acid]",151
14,"O=C(CN(C(=O)c1cnn([C@H]2CC[C@@H](C(=O)O)CC2)c1C(F)(F)F)C1CCC12CCCC2)c1c(Cl)cccc1Cl (stereo in doubt) [Example 627, cis-4-(4-((2-(2,6-dichlorophenyl)-2-oxoethyl)((1R)-spiro[3.4]oct-1-yl)carbamoyl)-5-(trifluoromethyl)-1H-pyrazol-1-yl)cyclohexanecarboxylic acid]",64.6
15,"C[C@]1(C(=O)O)CC[C@H](n2ncc(C(=O)N(CC(=O)c3c(Cl)cc(F)cc3Cl)CC3CCC3)c2C(F)(F)F)CC1 [Example 694, trans-4-(4-((cyclobutylmethyl)(2-(2,6-dichloro-4-fluorophenyl)-2-oxoethyl)carbamoyl)-5-(trifluoromethyl)-1H-pyrazol-1-yl)-1-methylcyclohexanecarboxylic acid]",3.98
16,"O=C(CN(CC1(F)CCCC1)C(=O)c1cnn(C2CCC(C(=O)O)CC2)c1C(F)(F)F)c1c(Cl)cccc1Cl (stereo in doubt) [Example 603, cis-4-(4-((2-(2,6-dichlorophenyl)-2-oxoethyl)((1-fluorocyclopentyl)methyl)carbamoyl)-5-(trifluoromethyl)-1H-pyrazol-1-yl)cyclohexanecarboxylic acid]",49
